From ChEMBL document CHEMBL1121776, “Folate antagonists. 18. Synthesis and antimalarial effects of N6-(arylmethyl)-N6-methyl-2,4,6-pteridinetriamines and related N6,N6-disubstituted 2,4,6-pteridinetriamines” (1981)
Values after ≈ are worked out from the molar mass of the structure shown.

What was measured:
Type in all cases: functional
Mus musculus [1] = assay: Parenteral antimalarial effect against Plasmodium berghei in mice (Mus musculus) at a dose of 20 mg/kg subcutaneously; Number of mice (Mus musculus) surviving at 60 days post infection and cured 2/5; details: route subcutaneous
Mus musculus [2] = assay: Parenteral antimalarial effect against Plasmodium berghei in mice (Mus musculus) at a dose of 160 mg/kg subcutaneously; Number of mice (Mus musculus) surviving at 60 days post infection and cured 10/10; details: route subcutaneous
Enterococcus faecalis [3] = assay: In vitro antibacterial effect against Streptococcus faecalis MGH-2
Escherichia coli [4] = assay: In vitro antibacterial effect against Escherichia coli Vogel by using gradient plate test
Pseudomonas aeruginosa [5] = assay: In vitro antibacterial effect against Pseudomonas aeruginosa 28 by using gradient plate test
Mus musculus [6] = assay: Parenteral antimalarial effect against Plasmodium berghei in mice (Mus musculus) at a dose of 320 subcutaneous mg/kg; Number of mice (Mus musculus) surviving at 60 days post infection and cured 5/5
[7] = tested on: Mycobacterium tuberculosis; assay: In vitro antibacterial effect against Mycobacterium tuberculosis H37Rv by using gradient plate test
Staphylococcus aureus [8] = assay: In vitro antibacterial effect against Staphylococcus aureus UC-76 by using gradient plate test
Shigella sonnei [9] = assay: In vitro antibacterial effect against Shigella sonnei C-10 by using gradient plate test
Staphylococcus aureus [10] = assay: In vitro antibacterial effect against Staphylococcus aureus S18713 by using gradient plate test
Mus musculus [11] = assay: Parenteral antimalarial effect against Plasmodium berghei in mice (Mus musculus) at a dose of 640 mg/kg subcutaneously; Number of mice (Mus musculus) surviving at 60 days post infection and cured 10/10; details: route subcutaneous
Mus musculus [12] = assay: Parenteral antimalarial effect against Plasmodium berghei in mice (Mus musculus) at a dose of 10sc mg/kg
Mus musculus [13] = assay: Parenteral antimalarial effect against Plasmodium berghei in mice (Mus musculus) at a dose of 40 mg/kg subcutaneously; details: route subcutaneous
Mus musculus [14] = assay: Parenteral antimalarial effect against Plasmodium berghei in mice (Mus musculus) at a dose of 160 subcutaneously mg/kg
Mus musculus [15] = assay: Parenteral antimalarial effect against Plasmodium berghei in mice (Mus musculus) at a dose of 640 subcutaneously mg/kg
Mus musculus [16] = assay: Parenteral antimalarial effect against Plasmodium berghei in mice (Mus musculus) at a dose of 640 subcutaneously mg/kg; Number of mice (Mus musculus) surviving at 60 days post infection and cured 4/10
Mus musculus [17] = assay: Parenteral antimalarial effect against Plasmodium berghei in mice (Mus musculus) at a dose of 320 subcutaneously mg/kg; Number of mice (Mus musculus) surviving at 60 days post infection and cured 1/5
Mus musculus [18] = assay: Parenteral antimalarial effect against Plasmodium berghei in mice (Mus musculus) at a dose of 80 mg/kg subcutaneously; details: route subcutaneous
Mus musculus [19] = assay: Parenteral antimalarial effect against Plasmodium berghei in mice (Mus musculus) at a dose of 20sc mg/kg
Mus musculus [20] = assay: Parenteral antimalarial effect against Plasmodium berghei in mice (Mus musculus) at a dose of 320 subcutaneous mg/kg
[21] = tested on: Mycobacterium tuberculosis; assay: In vitro antibacterial effect against M. t. H37Rv by using gradient plate test
Enterococcus faecalis [22] = assay: In vitro antibacterial effect against S. f MGH-2
Staphylococcus aureus [23] = assay: In vitro antibacterial effect against S. a. UC-76 by using gradient plate test
Staphylococcus aureus [24] = assay: In vitro antibacterial effect against S. a. S18713 by using gradient plate test
Shigella sonnei [25] = assay: In vitro antibacterial effect against S. s C-10 by using gradient plate test
Escherichia coli [26] = assay: In vitro antibacterial effect against E. c. Vogel by using gradient plate test
Pseudomonas aeruginosa [27] = assay: In vitro antibacterial effect against P.a 28 by using gradient plate test
Mus musculus [28] = assay: Parenteral antimalarial effect against Plasmodium berghei in mice (Mus musculus) at a dose of 160 mg/kg subcutaneously; Number of mice (Mus musculus) surviving at 60 days post infection and cured 5/5; details: route subcutaneous
Mus musculus [29] = assay: Parenteral antimalarial effect against Plasmodium berghei in mice (Mus musculus) at a dose of 160 mg/kg subcutaneously; Number of mice (Mus musculus) surviving at 60 days post infection and cured 8/10; details: route subcutaneous
Mus musculus [30] = assay: Parenteral antimalarial effect against Plasmodium berghei in mice (Mus musculus) at a dose of 40sc mg/kg; Number of mice (Mus musculus) surviving at 60 days post infection and cured 6/10

**Q.** With `CN(Cc1ccc2ccccc2c1)c1cnc2nc(N)nc(N)c2n1` as the compound, how does the MST (Mus musculus [1]) read?
**A.** 2 days

**Q.** And the MST (Mus musculus [2])?
**A.** 10 days

**Q.** What about the MIC (Enterococcus faecalis [3]) of the same compound?
**A.** < 0.25 µg/mL

**Q.** And the MIC (Escherichia coli [4])?
**A.** > 25 µg/mL

**Q.** What about the MIC (Pseudomonas aeruginosa [5]) of the same compound?
**A.** > 25 µg/mL

**Q.** What about the MST (Mus musculus [6]) of the same compound?
**A.** 5 days

**Q.** What about the MIC [7] of the same compound?
**A.** > 25 µg/mL

**Q.** And the MIC (Staphylococcus aureus [8])?
**A.** < 0.25 µg/mL

**Q.** And the MIC (Shigella sonnei [9])?
**A.** > 25 µg/mL

**Q.** What about the MIC (Staphylococcus aureus [10]) of the same compound?
**A.** < 0.25 µg/mL

**Q.** And the MST (Mus musculus [11])?
**A.** 10 days

**Q.** What about the MST (Mus musculus [12]) of the same compound?
**A.** 5.9 days

**Q.** With `Nc1nc(N)c2nc(N3CCc4ccccc4C3)cnc2n1` as the compound, how does the MST (Mus musculus [13]) read?
**A.** 0.1 days

**Q.** What about the MST (Mus musculus [14]) of the same compound?
**A.** 0.3 days

**Q.** What about the MST (Mus musculus [15]) of the same compound?
**A.** 0.5 days

**Q.** Which MST (Mus musculus [16]) does the source give for `CN(Cc1cccc(Br)c1)c1cnc2nc(N)nc(N)c2n1` here?
**A.** 4 days

**Q.** And the MST (Mus musculus [17])?
**A.** 1 days

**Q.** What about the MST (Mus musculus [18]) of the same compound?
**A.** 10.7 days

**Q.** What about the MST (Mus musculus [19]) of the same compound?
**A.** 6.9 days

**Q.** What about the MST (Mus musculus [13]) of the same compound?
**A.** 10.2 days

**Q.** What about the MST (Mus musculus [14]) of the same compound?
**A.** 12.8 days

**Q.** Which MIC (Enterococcus faecalis [3]) does the source give for `CN(Cc1ccc2c(c1)Cc1ccccc1-2)c1cnc2nc(N)nc(N)c2n1` here?
**A.** < 0.25 µg/mL

**Q.** What about the MIC (Escherichia coli [4]) of the same compound?
**A.** > 25 µg/mL

**Q.** What about the MIC (Pseudomonas aeruginosa [5]) of the same compound?
**A.** > 25 µg/mL

**Q.** And the MST (Mus musculus [18])?
**A.** 2 days

**Q.** And the MST (Mus musculus [19])?
**A.** 6.3 days

**Q.** And the MIC [7]?
**A.** 5 µg/mL (≈ 13.5 µM)

**Q.** What about the MIC (Staphylococcus aureus [8]) of the same compound?
**A.** < 0.25 µg/mL

**Q.** What about the MIC (Shigella sonnei [9]) of the same compound?
**A.** > 25 µg/mL

**Q.** And the MIC (Staphylococcus aureus [10])?
**A.** < 0.25 µg/mL

**Q.** And the MST (Mus musculus [13])?
**A.** 8.1 days

**Q.** What about the MST (Mus musculus [12]) of the same compound?
**A.** 3.5 days

**Q.** And the MST (Mus musculus [20])?
**A.** 5 days

**Q.** And the MST (Mus musculus [14])?
**A.** 5 days

**Q.** `Nc1nc(N)c2nc(N3CCCCC3)cnc2n1` was tested. Which MST (Mus musculus [18]) did it give?
**A.** 0.3 days

**Q.** And the MST (Mus musculus [19])?
**A.** 0.3 days

**Q.** What about the MST (Mus musculus [20]) of the same compound?
**A.** 0.9 days

**Q.** How did the MIC [21] turn out when `COc1cc(Cc2cnc(N)nc2N)cc(OC)c1OC` [TRIMETHOPRIM] was run?
**A.** > 25 µg/mL

**Q.** And the MIC (Enterococcus faecalis [22])?
**A.** < 0.25 µg/mL

**Q.** What about the MIC (Staphylococcus aureus [23]) of the same compound?
**A.** < 0.25 µg/mL

**Q.** And the MIC (Staphylococcus aureus [24])?
**A.** < 0.25 µg/mL

**Q.** What about the MIC (Shigella sonnei [25]) of the same compound?
**A.** > 25 µg/mL

**Q.** And the MIC (Escherichia coli [26])?
**A.** > 25 µg/mL

**Q.** What about the MIC (Pseudomonas aeruginosa [27]) of the same compound?
**A.** > 25 µg/mL

**Q.** Which results are given for `CN(Cc1cccc(C(F)(F)F)c1)c1cnc2nc(N)nc(N)c2n1`?
**A.** MIC (Enterococcus faecalis [3]): < 0.25 µg/mL; MIC (Escherichia coli [4]): > 25 µg/mL; MIC (Pseudomonas aeruginosa [5]): > 25 µg/mL; MST (Mus musculus [28]): 5 days; MST (Mus musculus [19]): 12.2 days; MIC [7]: 10 µg/mL (≈ 28.6 µM); MIC (Staphylococcus aureus [8]): < 0.25 µg/mL; MIC (Shigella sonnei [9]): > 25 µg/mL; MIC (Staphylococcus aureus [10]): < 0.25 µg/mL; MST (Mus musculus [13]): 15.4 days; MST (Mus musculus [12]): 8.8 days

**Q.** Which results are given for `COc1ccc(CN(C)c2cnc3nc(N)nc(N)c3n2)c2ccccc12`?
**A.** MIC (Enterococcus faecalis [3]): < 0.25 µg/mL; MIC (Escherichia coli [4]): > 25 µg/mL; MIC (Pseudomonas aeruginosa [5]): > 25 µg/mL; MST (Mus musculus [18]): 5 days; MST (Mus musculus [19]): 6.5 days; MIC [7]: 2.5 µg/mL (≈ 6.92 µM); MIC (Staphylococcus aureus [8]): < 0.25 µg/mL; MIC (Shigella sonnei [9]): > 25 µg/mL; MIC (Staphylococcus aureus [10]): < 0.25 µg/mL; MST (Mus musculus [13]): 5 days; MST (Mus musculus [20]): 5 days; MST (Mus musculus [14]): 5 days; MST (Mus musculus [15]): 5 days

**Q.** With `COc1cc(CN(C)c2cnc3nc(N)nc(N)c3n2)cc(OC)c1OC` as the compound, how does the MST (Mus musculus [29]) read?
**A.** 8 days

**Q.** What about the MST (Mus musculus [30]) of the same compound?
**A.** 6 days

**Q.** And the MIC (Enterococcus faecalis [3])?
**A.** < 0.25 µg/mL

**Q.** And the MIC (Escherichia coli [4])?
**A.** > 25 µg/mL

**Q.** What about the MIC (Pseudomonas aeruginosa [5]) of the same compound?
**A.** > 25 µg/mL

**Q.** And the MST (Mus musculus [19])?
**A.** 5.5 days

**Q.** What about the MIC [7] of the same compound?
**A.** > 25 µg/mL

**Q.** What about the MIC (Staphylococcus aureus [8]) of the same compound?
**A.** < 0.25 µg/mL

**Q.** What about the MIC (Shigella sonnei [9]) of the same compound?
**A.** > 25 µg/mL

**Q.** What about the MIC (Staphylococcus aureus [10]) of the same compound?
**A.** < 0.25 µg/mL

**Q.** And the MST (Mus musculus [11])?
**A.** 10 days

**Q.** Which results are given for `COc1ccc2ccccc2c1CN(C)c1cnc2nc(N)nc(N)c2n1`?
**A.** MST (Mus musculus [18]): 0.2 days; MST (Mus musculus [19]): 0.2 days; MST (Mus musculus [20]): 0.2 days

**Q.** Which MIC (Enterococcus faecalis [22]) does the source give for `CN(Cc1cc2ccccc2c2ccccc12)c1cnc2nc(N)nc(N)c2n1` here?
**A.** < 0.25 µg/mL

**Q.** And the MIC (Staphylococcus aureus [23])?
**A.** < 0.25 µg/mL

**Q.** What about the MIC (Staphylococcus aureus [24]) of the same compound?
**A.** < 0.25 µg/mL

**Q.** What about the MIC (Shigella sonnei [25]) of the same compound?
**A.** > 25 µg/mL

**Q.** And the MIC (Escherichia coli [26])?
**A.** > 25 µg/mL

**Q.** And the MIC (Pseudomonas aeruginosa [27])?
**A.** > 25 µg/mL
